Measured values: patent US9249131B2, “Modulators of ATP-binding cassette transporters” (Vertex Pharmaceuticals Incorporated, priority 2003, dated 2016)

Target: T1, ΔF508-CFTR (Homo sapiens, UniProt P13569, DEL508-508)
T1 construct: expressed in transfected cells; host or cells: NIH3T3 mouse fibroblasts stably expressing ΔF508-CFTR for the optical, whole-cell and single-channel assays; Fisher rat epithelial (FRT) cells for Ussing chamber follow-up
Assay: Assays for ΔF508-CFTR correction and potentiator properties (membrane potential optical and electrophysiological methods)
Assay type: cell-based
Conditions: CFTR modulation; for % Activity: % Efficacy; for EC50: tested using the above methods
Source text: Assays for Detecting and Measuring ΔF508-CFTR Correction and Potentiator Properties of Compounds
A) Membrane Potential Optical Methods for Assaying ΔF508-CFTR Modulation Properties of Compounds
The optical membrane potential assay utilized voltage-sensitive FRET sensors described by Gonzalez and Tsien (See, Gonzales, J. E. and R. Y. Tsien (1995) “Voltage sensing by fluorescence resonance energy transfer in single cells” Biophys J 69 (4): 1272-80, and Gonzalez, J. E. and R. Y. Tsien (1997) “Improved indicators of cell membrane potential that use fluorescence resonance energy transfer” Chem Biol 4 (4): 269-77) in combination with instrumentation for measuring fluorescence changes such as the Voltage/Ion Probe Reader (VIPR) (See, Gonzalez, J. E., K. Oades, et al. (1999) “Cell-based assays and instrumentation for screening ion-channel targets” Drug Discov Today 4 (9): 431-439).
These voltage sensitive assays are based on the change in fluorescence resonant energy transfer (FRET) between the membrane-soluble, voltage-sensitive dye, DiSBAC2 (3), and a fluorescent phospholipid, CC2-DMPE, which is attached to the outer leaflet of the plasma membrane and acts as a FRET donor. Changes in membrane potential (Vm) cause the negatively charged DiSBAC2(3) to redistribute across the plasma membrane and the amount of energy transfer from CC2-DMPE changes accordingly. The changes in fluorescence emission were monitored using VIPR™ II, which is an integrated liquid handler and fluorescent detector designed to conduct cell-based screens in 96- or 384-well microtiter plates.
To identify small molecules that correct the trafficking defect associated with ΔF508-CFTR; a single-addition HTS assay format was developed. The cells were incubated in serum-free medium for 16 hrs at 37° C. in the presence or absence (negative control) of test compound. As a positive control, cells plated in 384-well plates were incubated for 16 hrs at 27° C. to “temperature-correct” ΔF508-CFTR. The cells were subsequently rinsed 3× with Krebs Ringers solution and loaded with the voltage-sensitive dyes. To activate ΔF508-CFTR, […] and the CFTR potentiator, genistein ([…]), were added along with Cl^−-free medium to each well. The addition of Cl^−-free medium promoted Cl^− efflux in response to ΔF508-CFTR activation and the resulting membrane depolarization was optically monitored using the FRET-based voltage-sensor dyes.
To identify potentiators of ΔF508-CFTR, a double-addition HTS assay format was developed. During the first addition, a Cl^−-free medium with or without test compound was added to each well. After 22 sec, a second addition of Cl^−-free medium containing 2-10 µM forskolin was added to activate ΔF508-CFTR. The extracellular Cl^− concentration following both additions was 28 mM, which promoted Cl^− efflux in response to ΔF508-CFTR activation and the resulting membrane depolarization was optically monitored using the FRET-based voltage-sensor dyes.
• Bath Solution #1: (in mM) NaCl 160, KCl 4.5, CaCl2 2, MgCl2 1, HEPES 10, pH 7.4 with NaOH. • Chloride-free bath solution: Chloride salts in Bath Solution #1 are substituted with gluconate salts. • CC2-DMPE: Prepared as a 10 mM stock solution in DMSO and stored at −20° C. • DiSBAC2(3): Prepared as a 10 mM stock in DMSO and stored at −20° C. Cell Culture
NIH3T3 mouse fibroblasts stably expressing ΔF508-CFTR are used for optical measurements of membrane potential. The cells are maintained at 37° C. in 5% CO2 and 90% humidity in Dulbecco's modified Eagle's medium supplemented with 2 mM glutamine, 10% fetal bovine serum, 1×NEAA, β-ME, 1×pen/strep, and 25 mM HEPES in 175 cm^2 culture flasks. For all optical assays, the cells were seeded at 30,000/well in 384-well matrigel-coated plates and cultured for 2 hrs at 37° C. before culturing at 27° C. for 24 hrs. for the potentiator assay. For the correction assays, the cells are cultured at 27° C. or 37° C. with and without compounds for 16-24 hours.

T1 sequence (P13569 with tags, fused parts or gaps DEL508-508): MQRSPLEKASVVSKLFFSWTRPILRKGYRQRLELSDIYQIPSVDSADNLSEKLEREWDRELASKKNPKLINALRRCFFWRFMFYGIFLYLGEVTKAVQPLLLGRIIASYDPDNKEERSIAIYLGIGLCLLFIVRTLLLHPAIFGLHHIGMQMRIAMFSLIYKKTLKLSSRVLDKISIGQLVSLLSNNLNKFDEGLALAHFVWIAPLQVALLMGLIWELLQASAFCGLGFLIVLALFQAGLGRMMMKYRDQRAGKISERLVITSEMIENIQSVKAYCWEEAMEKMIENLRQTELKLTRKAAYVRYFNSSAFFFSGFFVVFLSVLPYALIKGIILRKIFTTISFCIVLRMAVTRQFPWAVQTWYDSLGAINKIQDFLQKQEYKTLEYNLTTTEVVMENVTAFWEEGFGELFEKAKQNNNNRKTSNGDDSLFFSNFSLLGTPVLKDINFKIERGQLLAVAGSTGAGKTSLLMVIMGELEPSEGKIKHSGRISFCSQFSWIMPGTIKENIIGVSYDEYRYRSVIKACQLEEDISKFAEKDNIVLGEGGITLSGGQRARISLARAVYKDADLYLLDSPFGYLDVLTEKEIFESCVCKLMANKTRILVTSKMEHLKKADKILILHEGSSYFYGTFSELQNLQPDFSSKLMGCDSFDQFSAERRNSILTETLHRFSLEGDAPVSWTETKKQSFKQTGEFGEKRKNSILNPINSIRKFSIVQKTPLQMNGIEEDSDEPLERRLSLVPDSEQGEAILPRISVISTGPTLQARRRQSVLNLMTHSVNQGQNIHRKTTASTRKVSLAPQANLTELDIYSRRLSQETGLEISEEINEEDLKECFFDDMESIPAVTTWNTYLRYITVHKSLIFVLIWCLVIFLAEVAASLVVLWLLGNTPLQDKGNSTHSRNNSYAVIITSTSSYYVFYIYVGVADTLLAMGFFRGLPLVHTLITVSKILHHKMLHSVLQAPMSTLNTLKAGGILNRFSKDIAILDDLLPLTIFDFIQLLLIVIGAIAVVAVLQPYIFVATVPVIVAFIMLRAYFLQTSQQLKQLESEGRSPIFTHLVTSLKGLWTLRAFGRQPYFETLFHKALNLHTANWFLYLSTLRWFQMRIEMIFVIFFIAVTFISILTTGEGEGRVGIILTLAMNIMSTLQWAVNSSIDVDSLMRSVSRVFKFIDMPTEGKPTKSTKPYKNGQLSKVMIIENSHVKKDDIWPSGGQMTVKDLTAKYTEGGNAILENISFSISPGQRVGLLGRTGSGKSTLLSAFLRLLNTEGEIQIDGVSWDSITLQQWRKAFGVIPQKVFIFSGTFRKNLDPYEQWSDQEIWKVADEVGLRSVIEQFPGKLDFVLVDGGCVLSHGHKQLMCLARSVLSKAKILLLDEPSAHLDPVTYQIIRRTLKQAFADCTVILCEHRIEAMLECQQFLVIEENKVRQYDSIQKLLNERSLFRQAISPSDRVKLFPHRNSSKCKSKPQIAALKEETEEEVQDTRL

% Activity | EC50 [µM] | SMILES
+++ (“+++” means >100%) | 10 to 25 | CCc1ccc(C(=O)Nc2nc3ccccc3s2)cc1 [compound 10]
+++ (“+++” means >100%) | 10 to 25 | CCCc1ccc(C(=O)Nc2nc3ccccc3s2)cc1 [compound 11]
+++ (“+++” means >100%) | < 10 | CCCCc1ccc(C(=O)Nc2nc3ccccc3s2)cc1 [compound 12]
++ (“++” means between 25% to 100%) | 10 to 25 | O=C(Nc1ncc(-c2ccccc2)s1)c1ccccc1 [compound 18]
++ (“++” means between 25% to 100%) | 10 to 25 | O=C(Nc1ncc(Cc2ccccc2Cl)s1)c1ccccc1Cl [compound 19]
++ (“++” means between 25% to 100%) | 10 to 25 | O=C(Nc1ncc(Cc2cccc(Cl)c2Cl)s1)C1CC1 [compound 22]
++ (“++” means between 25% to 100%) | < 10 | O=C(Nc1ncc(Cc2cccc(Cl)c2)s1)c1ccccc1 [compound 23]
++ (“++” means between 25% to 100%) | < 10 | O=C(Nc1ncc(Cc2ccccc2)s1)C(c1ccccc1)c1ccccc1 [compound 25]
++ (“++” means between 25% to 100%) | 10 to 25 | O=C(Nc1ncc(Cc2ccccc2Cl)s1)c1cccc2ccccc12 [compound 26]
++ (“++” means between 25% to 100%) | < 10 | COc1ccc(Cc2cnc(NC(=O)C(c3ccccc3)c3ccccc3)s2)cc1 [compound 27]
++ (“++” means between 25% to 100%) | 10 to 25 | O=C(Nc1ncc(Cc2ccccc2Cl)s1)c1ccccc1 [compound 28]
++ (“++” means between 25% to 100%) | < 10 | O=C(Nc1ncc(Cc2ccccc2Cl)s1)C1CCCCC1 [compound 29]
+++ (“+++” means >100%) | < 10 | O=C(Nc1ncc(Cc2cc(Cl)ccc2Cl)s1)C1CCCCC1 [compound 30]
++ (“++” means between 25% to 100%) | < 10 | O=C(Cc1ccccc1)Nc1ncc(Cc2cccc(Cl)c2)s1 [compound 31]
++ (“++” means between 25% to 100%) | 10 to 25 | O=C(Cc1ccccc1)Nc1ncc(Cc2ccccc2)s1 [compound 32]
++ (“++” means between 25% to 100%) | 10 to 25 | O=C(Nc1ncc(Cc2ccc(Cl)cc2)s1)c1ccccc1Cl [compound 33]
++ (“++” means between 25% to 100%) | 10 to 25 | N#CCC(=O)Nc1ncc(Cc2cccc(Cl)c2)s1 [compound 36]
+++ (“+++” means >100%) | < 10 | O=C(Nc1ncc(Cc2ccccc2Cl)s1)C(c1ccccc1)c1ccccc1 [compound 37]
++ (“++” means between 25% to 100%) | < 10 | O=C(Nc1ncc(Cc2ccc(Cl)cc2)s1)C(c1ccccc1)c1ccccc1 [compound 38]
++ (“++” means between 25% to 100%) | < 10 | Cc1ccccc1C(=O)Nc1nc2c(C)cccc2s1 [compound 40]
++ (“++” means between 25% to 100%) | < 10 | Cc1cccc2sc(NC(=O)c3ccccc3Cl)nc12 [compound 41]
++ (“++” means between 25% to 100%) | < 10 | O=C(Nc1nc(-c2ccc(Br)cc2)cs1)c1cccc(Cl)c1 [compound 43]
+++ (“+++” means >100%) | 10 to 25 | Cc1ccc(C(=O)Nc2nc(-c3ccccc3)c(C)s2)cc1 [compound 44]

The remaining lines, values behind:

SMILES | % Activity | EC50 [µM]
CCOc1ccc2nc(NC(=O)C3CCCCC3)sc2c1 [compound 1] | ++ (“++” means between 25% to 100%) | 10 to 25
Cc1ccc(-c2csc(NC(=O)c3ccccc3)n2)c(C)c1 [compound 2] | +++ (“+++” means >100%) | < 10
CCCCC(=O)Nc1nc(-c2cc(C)ccc2C)cs1 [compound 3] | ++ (“++” means between 25% to 100%) | 10 to 25
COc1ccccc1-c1csc(NC(=O)c2ccc(C)cc2)n1 [compound 4] | ++ (“++” means between 25% to 100%) | < 10
COc1ccccc1-c1csc(NC(=O)c2cccc(C)c2)n1 [compound 5] | ++ (“++” means between 25% to 100%) | 10 to 25
COc1ccc(C(=O)Nc2nc(-c3ccccc3OC)cs2)cc1 [compound 6] | ++ (“++” means between 25% to 100%) | 10 to 25
COc1cccc(C(=O)Nc2nc(-c3ccccc3OC)cs2)c1 [compound 7] | +++ (“+++” means >100%) | 10 to 25
O=C(Nc1nc2c(s1)CCCC2)c1cccc(Br)c1 [compound 8] | +++ (“+++” means >100%) | < 10
O=C(Nc1nc(-c2cccs2)cs1)c1cccc(Br)c1 [compound 9] | ++ (“++” means between 25% to 100%) | < 10
COc1ccc(-c2ccc(C(=O)Nc3nccs3)cc2)cc1 [compound 13] | ++ (“++” means between 25% to 100%) | < 10
COc1ccc(-c2ccc(C(=O)Nc3nc4ccccc4s3)cc2)cc1 [compound 14] | ++ (“++” means between 25% to 100%) | < 10
COc1ccc(-c2ccc(C(=O)Nc3nc4ccc(OC)cc4s3)cc2)cc1 [compound 15] | ++ (“++” means between 25% to 100%) | < 10
CCCCc1ccc(C(=O)Nc2nccs2)cc1 [compound 16] | +++ (“+++” means >100%) | < 10
O=C(Nc1nc(-c2ccccc2)cs1)C12CC3CC(CC(C3)C1)C2 [compound 17] | ++ (“++” means between 25% to 100%) | < 10
O=C(O)CSCC(=O)Nc1nc(-c2ccccc2)c(-c2ccccc2)s1 [compound 20] | ++ (“++” means between 25% to 100%) | 10 to 25
O=C(Nc1nc(-c2ccccc2)cs1)c1ccccc1 [compound 21] | ++ (“++” means between 25% to 100%) | 10 to 25
CCC(C(=O)Nc1nc2ccc(C)cc2s1)c1ccccc1 (stereo not shown) [compound 24] | +++ (“+++” means >100%) | 10 to 25
CC(C)C(C(=O)Nc1nc(-c2ccncc2)cs1)c1ccc(F)cc1F (stereo not shown) [compound 34] | ++ (“++” means between 25% to 100%) | 10 to 25
CC(C)C(C(=O)Nc1nc(-c2ccncc2)cs1)c1ccccc1 (stereo not shown) [compound 35] | ++ (“++” means between 25% to 100%) | 10 to 25
Cc1ccc(C(=O)Nc2nc(-c3ccc(C)cc3)c(-c3ccccc3)s2)cc1 [compound 39] | +++ (“+++” means >100%) | < 10
Cc1cccc2sc(NC(=O)c3cccc(Br)c3)nc12 [compound 42] | ++ (“++” means between 25% to 100%) | < 10
Cc1ccc(-c2nc(NC(=O)c3ccc(C#N)cc3)sc2-c2ccccc2)cc1 [compound 45] | ++ (“++” means between 25% to 100%) | 10 to 25
O=C(Cc1ccccc1)Nc1nc(-c2cccc3ccccc23)cs1 [compound 46] | ++ (“++” means between 25% to 100%) | < 10
Cc1ccc(C(=O)Nc2nc(-c3ccc(C)cc3)cs2)cc1 [compound 47] | ++ (“++” means between 25% to 100%) | 10 to 25
